The values below come from paper doi:10.1101/2025.09.12.675753, “In search of nonlipogenic ABCA1 inducers (NLAI): precision coregulator TR-FRET identifies diverse signatures for LXR ligands” (bioRxiv, 2025).

The structures appear in SMILES notation. “Also recorded” adds a separate entry of the source. Where two headings read alike, the source gives them in different places.

The target of data set [1] is T1, LXRα (Homo sapiens, UniProt Q13133).
T1 sequence (Q13133 209-447 limits assumed): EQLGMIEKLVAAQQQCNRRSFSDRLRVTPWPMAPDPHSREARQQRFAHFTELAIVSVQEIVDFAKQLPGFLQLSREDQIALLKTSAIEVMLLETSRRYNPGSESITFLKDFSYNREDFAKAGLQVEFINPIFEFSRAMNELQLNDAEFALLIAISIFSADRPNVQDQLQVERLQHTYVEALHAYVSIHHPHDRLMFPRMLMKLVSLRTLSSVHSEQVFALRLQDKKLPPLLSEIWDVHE
To be noted: for SRC-1 recruitment to LXRα, efficacy relative to T0: ligand alone, normalized to T0 (100%).

Data set [2] deals with HepG2 cells. As to the kind of experiment: Cytotoxicity seen in HepG2 cell treatment. The following applies: higher concentrations.
Data set [3] concerns the target T2, LXRβ (Homo sapiens, UniProt P55055).
T2 sequence (P55055 222-460 limits assumed): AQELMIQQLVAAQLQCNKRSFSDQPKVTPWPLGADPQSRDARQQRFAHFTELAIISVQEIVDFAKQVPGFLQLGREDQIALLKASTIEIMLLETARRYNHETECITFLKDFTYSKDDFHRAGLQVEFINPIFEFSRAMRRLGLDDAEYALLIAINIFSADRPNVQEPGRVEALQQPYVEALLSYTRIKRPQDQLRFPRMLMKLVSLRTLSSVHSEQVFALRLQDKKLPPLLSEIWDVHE
To be noted: for LXR isoform selectivity, SRC-1 recruitment: LXRβ versus LXRα.

Data set [4] relates to C57Bl/6 mice. Further details: method as in PMID 15145986. The following applies: cited from earlier work.
In data set [5] the target is PXR (Homo sapiens, UniProt O75469). As to the kind of experiment: Lanthascreen CRT, SRC1-4 recruitment to PXR. The format is biochemical. To be noted: SRC1-4 coactivator.
Sequence of PXR (O75469 146-433 limits assumed): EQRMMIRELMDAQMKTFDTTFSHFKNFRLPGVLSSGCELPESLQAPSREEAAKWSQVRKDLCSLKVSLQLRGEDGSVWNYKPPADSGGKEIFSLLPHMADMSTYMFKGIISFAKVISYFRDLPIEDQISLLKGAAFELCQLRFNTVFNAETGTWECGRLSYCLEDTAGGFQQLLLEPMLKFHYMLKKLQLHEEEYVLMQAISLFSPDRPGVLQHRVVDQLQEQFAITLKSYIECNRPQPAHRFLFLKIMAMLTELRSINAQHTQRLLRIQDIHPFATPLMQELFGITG
Data set [6] concerns the target T1, LXRα. As to the kind of experiment: Multiplex precision CRT (pCRT), SRC1 and NCoR2, LXRα. Further details: NR-LBD with short coregulator peptides as used in the present work; purchased Thermo Fisher Scientific PV4657. To be noted: isoform not given. The format is biochemical.
The subject of data set [7] is cynomolgus monkeys. Further details: method as in PMID 16024916. The following applies: cited from earlier work.
In data set [8] the test system is hamsters. Details: method as in PMID 16024916. To be noted: cited from earlier work.
The target in data set [9] is T1, LXRα. Details: NR-LBD with short coregulator peptides as used in the present work; purchased Thermo Fisher Scientific PV4657; method as in PMID 16354658. To be noted: CRT; cited from earlier work.
Data set [10] has as its target T2, LXRβ. As to the kind of experiment: Multiplex precision CRT (pCRT), SRC1 and NCoR2, LXRβ. The format is biochemical. Details: NR-LBD with short coregulator peptides as used in the present work; purchased Thermo Fisher Scientific PV4660. To be noted: isoform not given.
Data set [11] deals with HepG2 cells. Details: method as in PMID 28087808. The following applies: cited from earlier work.
The target in data set [12] is T1, LXRα. As to the kind of experiment: Corepressor (NCOR2, SMRT2) binding CRT, LXRα. The following applies: absence of coactivator.
The target in data set [13] is T2, LXRβ. Nature of the data set: Corepressor (NCOR2, SMRT2) binding CRT, LXRβ.
In data set [14] the test system is HepG2 cells.
For data set [15] the following is noted: po; cited from earlier work.
The subject of data set [16] is LXR. Nature of the data set: CRT signature categorization, heat map of response at 1 μM. It is filed as biochemical. To be noted: signatures of Table 1. From the text: With the knowledge that corepressors bind to the apo-receptor; whereas coactivator binding requires a ligand-induced conformational change, we can categorize all ligands using their CRT profiles: ligands induce 3 conformations with CoR (destabilizing D, stabilizing S, neutral N) and only 2 conformations with CoA (stabilizing S, neutral N) (Table 1).
To determine which LXR ligands fit with these theoretical CRT signatures, concentration-response curves were interpolated to measure normalized response at 1 μM ligand concentration and plotted as a heat map (Figs 9A, S8).
The CRT signatures of the three agonist and three antagonist classifications were modelled in the same heat map using signatures defined in Table 1 and the measured responses to the real LXR ligands in our study.

The test system of data set [17] is SRE promoter luciferase (SRE-luc) in HepG2 cells. Nature of the data set: SRE-luc reporter in HepG2 cells. It is filed as cell-based, human. The following applies: HepG2, normalized to T0. An excerpt: Our phenotypic high throughput screen (HTS) approach to identify nonlipogenic ABCA1 Inducers (NLAI) originally used counterscreening with a SREBP1c-luciferase reporter (linked to the SREBF1 gene promoter) in human hepatocarcinoma HepG2 cells.[81] Unwanted lipogenesis is mediated by LXR agonists via direct transcriptional activation and indirectly by the effects of SREBP1c.[57] [109] SREBP1c enhances transcription of genes required for synthesis of fatty acids and TG and as the dominant isoform in liver is associated most closely with lipogenesis and TG elevation.[109] […] Binding of SREBP1c to the sterol response element (SRE) induces transcription of lipogenic genes associated with elevated TG. To better model the lipogenic axis in hepatocytes, we use HepG2 cells stably transfected with a luciferase reporter downstream of a SRE promoter (SRE-luc), activation of which requires SREBP1c maturation.
HepG2 cells were cotransfected with SRE (LDLR)-NlucP SuperPiggyBac Transposon and a separate Transposase plasmid (System Biosciences). Cells were expanded for multiple passages followed by selection with puromycin (1ug/ml). Stable cells constitutively express GFP allowed for FACS enrichment and/or cell cloning. Initially, stable pools were compared to low expressing and high expressing enriched pools. The optimal pool was selected based on assay performance (Z’) and was grown and maintained as above, with the addition of 1.0 μg/mL of puromycin biweekly.

Data set [18] concerns SREBF1, FAS, and SCD1 in HepG2 cells. As to the kind of experiment: RT-PCR of lipogenic genes in HepG2 cells. To be noted: HepG2, 24 hours. It is filed as cell-based, human. Here is the method:
Owing to the anomalous response in the reporter assay, we measured lipogenic genes, SREBF1, FAS, and SCD1 by RT-PCR in HepG2 cells in response to treatment with the biphenyl sulfones (Figs 5G–I).
HepG2 cells were seeded in 12-well plates and treated with compounds for 24 hours. Following treatment, cells were washed once with PBS and then lysed in 350 μL of RLT buffer (Qiagen). Lysates were immediately frozen at −80 °C until RNA extraction. Total RNA was extracted using RNeasy Plus Mini columns (Qiagen) according to the manufacturer’s instructions. RNA concentration and purity were assessed using the A260/A280 ratio measured on a Synergy Neo2 plate reader (BioTek). For cDNA synthesis, 2 μg of total RNA was reverse transcribed using SuperScript III reverse transcriptase (Invitrogen), oligo(dT)12–18 primers, and dNTP mix, following the manufacturer’s protocol. Quantitative PCR was performed using TaqMan Gene Expression Master Mix (Invitrogen) with 2 μL of cDNA and gene-specific TaqMan probes in a 20 μL reaction volume per well. The following TaqMan assays were used: ABCA1: Hs01059101_m1, SREBF1: Hs01088691_m1, SCD: Hs01682761_m1, FASN: Hs01005622_m1, and HPRT1 (endogenous control): Hs02800695_m1. qPCR was performed on a StepOne Real-Time PCR System (Applied Biosystems), and gene expression was quantified using the ΔΔCt method.

Data set [19] concerns NASH mouse model. To be noted: cited from earlier work.
In data set [20] the test system is ABCA1-promoter luciferase in CCF-STTG1 cells. As to the kind of experiment: ABCA1-luc reporter in CCF-STTG1 astrocytoma cells. The format is cell-based, human. To be noted: 24 hr incubation, normalized to T0 (100%). An excerpt:
Astrocytoma CCF-STTG1 cells, stably transfected with an ABCA1-promoter linked to a luciferase response element provide a model for ABCA1 induction in astrocytes.[81] […] Apparent inverse agonist activity in cell-based assays can result from true inverse agonist recruitment of corepressors or from antagonist activity towards endogenous sterol LXR agonists. Although we use serum stripped media, antagonism of endogenous LXR agonists cannot be ruled out.
Low passage CCF-STTG1 cells (20,000 cells/well) were seeded in 96-well plates in media containing charcoal-stripped FBS and incubated at 37 °C and 5% CO2 for 24 hours prior to a 24-hour treatment. All compounds were dissolved in DMSO, and final DMSO concentrations never exceeded 1%. After a 24-hour incubation period, add a volume of ONE-GLO™EX Reagent that is equal to the volume of culture medium in each well and incubate for 3 to 5 minutes on the shaker. The luminescent activity of compounds ([…], 10-fold dilution) was examined using the ONE-GLO™EX assay (Promega). The data was normalized to DMSO. The assays were performed in duplicates for each concentration, and the EC50 values were determined from non-linear regression analysis of the dose-response curve generated in GraphPad Prism 9.

In the case of `CC(C)C(O)CC[C@@H](C)[C@H]1CC[C@H]2[C@@H]3CC=C4C[C@@H](O)CC[C@]4(C)[C@H]3CC[C@]12C` (some centres unmarked) [24HC, 24-hydroxycholesterol], the “SRC-1 recruitment to LXRα, efficacy relative to T0” value in [1] was “partial agonist”. Moreover, in data set [2], the Cytotoxicity result was “cytotoxic at higher concentrations”. Besides, the “LXR isoform selectivity, SRC-1 recruitment” value in data set [3] is reported as “nonselective”. For the same compound, in [3] (ligand alone, normalized to T0 (100%)), the “SRC-1 recruitment to LXRβ, efficacy/potency relative to T0” value is “partial agonist”.

In the case of `O=C(O)Cc1cccc(OCCCN(Cc2cccc(C(F)(F)F)c2Cl)CC(c2ccccc2)c2ccccc2)c1` [GW3965], the “Liver weight and TGs” value in data set [4] (3 days treatment, GW3965 even at 100mg/kg/day) was “no effect on these liver markers”. For the same compound, the “SREBP1c and FAS expression in the liver” value in data set [4] (3 days treatment) was “minimal increases in SREBP1c and FAS expression in the liver”. The “ABCA1 expression increase, peripheral macrophages” value in data set [4] (peripheral macrophages) is on record as 7 fold. The “ABCA1 expression increase, small intestine” value in data set [4] (small intestine) was 8 fold. Further, the “PXR agonism/binding in CRT” value in data set [5] was “no binding to PXR”. Moreover, the “Left-shift in the NCOR2 displacement curve, pCRT versus CRT” value in [6] and in data set [10] was 100 fold in each case. Besides, in data set [7], the “TG and LDL” value is recorded as “no effect on TG”. In addition, in data set [8], the “Plasma TG, LDL-C and VLDL-C” value was “dose-dependent increase”. Further, the “Concentration for weak recruitment of NCOR1 to LXRα” value in data set [9] was over 1 µM.

As to `CN(CC(=O)Nc1ccc(F)c(F)c1F)C(=O)c1ccc2c(c1)OCCO2` [IMB-808], in [11], the “Lipogenicity in HepG2 cells” value is “nonlipogenic in HepG2 cells”.

Consider `CC(CCC(=O)N(C)C)C1CCC2C3CC=C4CC(O)CCC4(C)C3CCC12C` (stereo not drawn) [DMHCA, N,N-dimethyl-3β-hydroxy-cholenamide], for which the “SRC-1 recruitment to LXRα, efficacy relative to T0” value in [1] was “partial agonist activity at LXRα”. In [12], the “NCOR2 binding to LXRα, ligand effect” value is listed as “little or no effect”. In addition, the “NCOR2 binding to LXRβ, ligand effect” value in data set [13] (absence of coactivator) is given as “little or no effect; also recorded: does not displace NCOR2 from LXRβ in the absence of SRC1”. Moreover, the Cytotoxicity result in data set [14] was “cytotoxic at higher concentrations”. The “Metabolic lability and oral bioavailability” value in data set [15] is given as “metabolically labile with poor oral bioavailability”. Moreover, the “LXR isoform selectivity, SRC-1 recruitment” value in [3] is “nonselective”.

For `Cc1cc(C)c(S(=O)(=O)N(Cc2ccc(-c3cccc(S(C)(=O)=O)c3)cc2)Cc2ccc(C(F)(F)F)o2)c(C)c1` [GSK2033], the CRT signature category entry in data set [16] is reported as “HA (hard antagonist (HA))”. Also, the “Effect on 24HC agonism at LXRα” value in [1] (in the presence of 24HC (3 μM)) was “without effect on LXRα”. Moreover, in data set [1], the “SRC-1 recruitment to LXRα, efficacy relative to T0” value was “neither ligand stabilized the LXR:SRC1 complex alone”. The “SRE-luc response” value in [17] is “neutral or antagonist response; also recorded: mixed antagonist/inverse agonist phenotype”. For the same compound, the “Lipogenic gene transcription (SREBF1, FAS, SCD1) by RT-PCR” value in [18] is reported as “reducing lipogenic gene transcription below baseline”. Further, in [12], the “Corepressor (NCOR2 and SMRT2) binding to LXRα, ligand effect” value is given as “does not stabilize a conformation that disrupts corepressor binding to LXRα”. Besides, the “SMRT2 binding to LXRβ, ligand effect” value in [13] was “selectively displace SMRT2 from LXRβ”. Further, the “Expression of lipogenic genes, including FAS and SREBP1c” value in [19] is on record as “increased rather than suppressed”. In addition, in data set [20], the “ABCA1-luc response” value is “inverse agonist activity in cells; also recorded: mixed antagonist/inverse agonist phenotype”. Also, in data set [3], the “Effect on 24HC agonism at LXRβ” value is reported as “antagonized the agonism of 24HC at LXRβ” and the “SRC-1 recruitment to LXRβ, efficacy/potency relative to T0” value is “neither ligand stabilized the LXR:SRC1 complex alone”.
